Results reported in patent US6610747B2, “Phenoxybenzylamine derivatives as SSRIs” (Pfizer Inc., priority 2000, dated 2003).

Biological target: T1, human serotonin transporter (hSERT) (Homo sapiens, UniProt P31645)
T1 construct: expressed in transfected cells; host or cells: HEK-293
Experiment: Inhibition of 3H-serotonin uptake in HEK-293 cells stably transfected with the human serotonin transporter (SRI)
Type: cell-based
Conditions: HEK-293 cells expressing hSERT; 3H-5HT (50 nM); 5 min incubation; room temperature; read-out: serotonin re-uptake inhibition (SRI) IC50
Procedure: A number of compounds were tested for biological activity by their ability to inhibit the uptake of serotonin by human serotonin transporters as follows.
Human embryonic kidney cells (HEK-293) stably transfected with either the human serotonin transporter (hSERT), noradrenaline transporter (hNET) or dopamine transporter (hDAT) were cultured under standard cell culture techniques (cells were grown at 37° C. and 5% CO2 in DMEM-culture media (supplemented with 10% dialysed foetal calf serum (FCS), 2mM l-glutamine and 250 μg/ml geneticin)). Cells were harvested for the assay to yield a cell suspension of 750,000 cells/ml.
(i) Determination of Inhibitor Potency
All test compounds were dissolved in 100% DMSO and diluted down in assay buffer to give appropriate test concentrations. Assays were carried out in 96-well filter bottom plates. Cells (7500 cells/assay well) were pre-incubated in standard assay buffer containing either test compound, standard inhibitor or compound vehicle (1% DMSO) for 5 minutes. Reactions were started by addition of either ^3H-Serotonin, ^3H-Noradrenaline or ^3H-Dopamine substrates. All reactions were carried out at room temperature in a shaking incubator. Incubation times were 5 minutes for the hSERT and hDAT assays and 15 minutes for the hNET assay. Reactions were terminated by removal of the reaction mixture using a vacuum manifold followed by rapid washing with ice cold assay buffer. The quantity of ^3H-substrate incorporated into the cells was then quantified.
Assay plates were dried in a microwave oven, scintillation fluid added, and radioactivity measured.
(iii) Standard Assay Buffer Composition
Trizma hydrochloride (26 mM)
Note: The pH of the buffer was adjusted to 7.40 with 1M NaOH before addition of CaCl2 and pargyline.
(iv) Summary of Assay Parameters

T1 sequence (P31645 whole entry): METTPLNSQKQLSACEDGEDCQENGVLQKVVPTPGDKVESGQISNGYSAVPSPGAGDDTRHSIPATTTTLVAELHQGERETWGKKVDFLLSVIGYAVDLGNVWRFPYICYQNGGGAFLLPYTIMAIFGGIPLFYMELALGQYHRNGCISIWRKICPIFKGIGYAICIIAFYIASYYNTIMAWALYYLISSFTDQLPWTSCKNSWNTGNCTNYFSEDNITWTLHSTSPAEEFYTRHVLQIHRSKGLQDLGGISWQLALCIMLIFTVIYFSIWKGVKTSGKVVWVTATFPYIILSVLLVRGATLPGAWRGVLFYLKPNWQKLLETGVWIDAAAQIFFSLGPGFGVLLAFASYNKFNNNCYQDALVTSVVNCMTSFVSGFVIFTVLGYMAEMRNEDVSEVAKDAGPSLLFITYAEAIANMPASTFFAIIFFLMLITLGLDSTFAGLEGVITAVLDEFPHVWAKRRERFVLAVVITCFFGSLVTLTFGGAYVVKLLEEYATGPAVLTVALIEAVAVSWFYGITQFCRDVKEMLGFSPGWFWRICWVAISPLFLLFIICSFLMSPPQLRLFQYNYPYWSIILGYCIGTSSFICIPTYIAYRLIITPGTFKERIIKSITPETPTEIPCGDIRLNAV

IC50 [nM] | SMILES
4.7 | CN(C)Cc1cc(S(N)(=O)=O)ccc1Oc1ccc2c(c1)CCS2 [Example 16, 4-(2,3-dihydro-1-benzothien-5-yloxy)-3-[(dimethylamino)methyl]-benzenesulfonamide]
2 | CN(C)Cc1ccccc1Oc1ccc2ncccc2c1 [Example 29, N,N-dimethyl-N-[2-(6-quinolinyloxy)benzyl]amine]
3.7 | CNCc1cc(C(=O)NC)ccc1Oc1ccc2c(c1)CCS2 [Example 62, 4-(2,3-dihydro-1-benzothien-5-yloxy)-N-methyl-3-[(methylamino)methyl]-benzamide]
